# Data reported in ChEMBL document CHEMBL4414578, “Design and synthesis of pentacyclic triterpene conjugates and their use in medicinal research” (Eur J Med Chem, 2019).
# Tests used:
# [1] = test system: Human immunodeficiency virus 1; experiment: Antiviral activity against HIV-1 NL4-3 infected in human MT-4 cells; format: functional, organism-based; conditions: Human immunodeficiency virus 1, NL4-3, MT4
# A549 = experiment: Antitumor activity against human A549 cells by SRB assay; format: functional, cell-based
# 518A2 = experiment: Antitumor activity against human 518A2 cells by SRB assay; format: functional, cell-based
# MCF7 = experiment: Antitumor activity against human MCF7 cells by SRB assay; format: functional, cell-based
# A2780 = experiment: Antitumor activity against human A2780 cells by SRB assay; format: functional, cell-based
# 8505C = experiment: Antitumor activity against human 8505C cells by SRB assay; format: functional, cell-based
# Ehrlich = experiment: Cytotoxicity against mouse Ehrlich carcinoma cells assessed as reduction in cell viability after 48 hrs by MTT assay; format: functional, cell-based
# P815 = experiment: Cytotoxicity against mouse P815 cells assessed as reduction in cell viability after 48 hrs by MTT assay; format: functional, cell-based; conditions: P815, 48 h
# CCRF-CEM = experiment: Cytotoxicity against human CCRF-CEM cells assessed as reduction in cell viability; format: functional, cell-based
# L132 = experiment: Cytotoxicity against human L-132 cells assessed as reduction in cell viability after 72 hrs by MTT assay; format: functional, cell-based; conditions: L132, 72 h
# DU-145 = experiment: Cytotoxicity against human DU145 cells assessed as reduction in cell viability after 72 hrs by MTT assay; format: functional, cell-based; conditions: DU-145, 72 h
# HT-29 = experiment: Cytotoxicity against human HT-29 cells assessed as reduction in cell viability after 72 hrs by MTT assay; format: functional, cell-based; conditions: HT-29, 72 h
# PA-1 = experiment: Cytotoxicity against human PA1 cells assessed as reduction in cell viability after 72 hrs by MTT assay; format: functional, cell-based; conditions: PA-1, 72 h
# Leishmania infantum = experiment: Antileishmanial activity against Leishmania infantum promastigotes after 2 to 24 hrs by Giemsa staining-based microscopic analysis; format: functional, organism-based
# Plasmodium falciparum = experiment: Antimalarial activity against chloroquine-sensitive Plasmodium falciparum 3D7 by flow cytometry analysis; format: functional, organism-based
# [2] = Selectivity index, ratio of IC50 for HEK293T cells tobIC50 for chloroquine-sensitive Plasmodium falciparum 3D7; format: toxicity; conditions: human, read-out: Ratio IC50
# HEK-293T = experiment: Cytotoxicity against HEK293T cells assessed as reduction in cell viability; format: cell-based; conditions: Homo sapiens
# [3] = test system: Human immunodeficiency virus 1; experiment: Antiviral activity against HIV-1; format: functional, organism-based
# [4] = test system: Human immunodeficiency virus 1; experiment: Antiviral activity against HIV-1 3B; format: functional, organism-based; conditions: Human immunodeficiency virus 1, 3B
structure (smiles),measurement,setting,value
C=C(C)[C@@H]1CC[C@]2(C(=O)OCc3cn([C@H]4C[C@H](n5cc(C)c(=O)[nH]c5=O)O[C@@H]4CO)nn3)CC[C@]3(C)[C@H](CC[C@@H]4[C@@]5(C)CC[C@H](OC(=O)CC(C)(C)C(=O)O)C(C)(C)[C@@H]5CC[C@]43C)[C@@H]12,EC50,[1],100 nM
C=C(C)[C@@H]1CC[C@]2(C(=O)NCCNCCN)CC[C@]3(C)[C@H](CC[C@@H]4[C@@]5(C)CC[C@H](OC(C)=O)C(C)(C)[C@@H]5CC[C@]43C)[C@@H]12,IC50,A549,1400 to 2240 nM
same,IC50,518A2,1400 to 2240 nM
same,IC50,MCF7,1400 to 2240 nM
same,IC50,A2780,1400 to 2240 nM
same,IC50,8505C,1400 to 2240 nM
CC(=O)O[C@H]1C(CCC[P+](c2ccccc2)(c2ccccc2)c2ccccc2)C[C@]2(C)[C@H]3CC[C@@H]4[C@H]5[C@H](C(C)C)CC[C@]5(C(=O)O)CC[C@@]4(C)[C@]3(C)CC[C@H]2C1(C)C (some centres undefined),IC50,Ehrlich,1100 to 4700 nM
same,IC50,P815,1100 to 4700 nM
C=C(/C=N/N=C/c1ccccn1)[C@@H]1CC[C@]2(C(=O)O)CC[C@]3(C)[C@H](CC[C@@H]4[C@@]5(C)CC[C@H](O)C(C)(C)[C@@H]5CC[C@]43C)[C@@H]12,IC50,CCRF-CEM,3800 to 4800 nM
C=C(C)[C@@H]1CC[C@]2(C(=O)O)CC[C@]3(C)[C@H](CC[C@@H]4[C@@]5(C)CC/C(=N\Nc6ccccc6)C(C)(C)[C@@H]5CC[C@]43C)[C@@H]12,IC50,L132,1000 to 4000 nM
same,IC50,DU-145,1000 to 4000 nM
same,IC50,HT-29,1000 to 4000 nM
same,IC50,PA-1,1000 to 4000 nM
C=C(C)[C@@H]1CC[C@]2(C(=O)NCCN)CC[C@]3(C)[C@H](CC[C@@H]4[C@@]5(C)CC[C@H](O)C(C)(C)[C@@H]5CC[C@]43C)[C@@H]12,IC50,CCRF-CEM,700 nM
C=C(C)[C@@H]1CC[C@]2(C(=O)O)CC[C@]3(C)[C@H](CC[C@@H]4[C@@]5(C)CC/C(=N\NC(C)=O)C(C)(C)[C@@H]5CC[C@]43C)[C@@H]12,IC50,L132,1000 to 4000 nM
same,IC50,DU-145,1000 to 4000 nM
same,IC50,HT-29,1000 to 4000 nM
same,IC50,PA-1,1000 to 4000 nM
C=C(CC=O)[C@@H]1CC[C@]2(COC(=O)n3ccnc3)CC[C@]3(C)[C@H](CC[C@@H]4[C@@]5(C)CC[C@H](O)C(C)(C)[C@@H]5CC[C@]43C)[C@@H]12,IC50,Leishmania infantum,51000 nM
C=C(/C=N/N=C/c1ccccc1[N+](=O)[O-])[C@@H]1CC[C@]2(C(=O)O)CC[C@]3(C)[C@H](CC[C@@H]4[C@@]5(C)CC[C@H](O)C(C)(C)[C@@H]5CC[C@]43C)[C@@H]12,IC50,CCRF-CEM,3800 to 4800 nM
C=C(C)[C@@H]1CC[C@]2(C(=O)N3CCNCC3)CC[C@]3(C)[C@H](CC[C@@H]4[C@@]5(C)CC[C@H](O)C(C)(C)[C@@H]5CC[C@]43C)[C@@H]12,IC50,CCRF-CEM,800 nM
C=C(C)[C@@H]1CC[C@]2(C(=O)O)CC[C@]3(C)[C@H](CC[C@@H]4[C@@]5(C)CC/C(=N\Nc6ccc(F)cc6)C(C)(C)[C@@H]5CC[C@]43C)[C@@H]12,IC50,L132,1000 to 4000 nM
same,IC50,DU-145,1000 to 4000 nM
same,IC50,HT-29,1000 to 4000 nM
same,IC50,PA-1,1000 to 4000 nM
CC(=O)O[C@H]1C(CCC[P+](c2ccccc2)(c2ccccc2)c2ccccc2)C[C@]2(C)[C@H]3CC[C@@H]4[C@H]5[C@H](C(C)C)CC[C@]5(C(=O)OCc5ccccc5)CC[C@@]4(C)[C@]3(C)CC[C@H]2C1(C)C (some centres undefined),IC50,Ehrlich,1100 to 4700 nM
same,IC50,P815,1100 to 4700 nM
COC(=O)[C@]12CC[C@@H](C(C)C)[C@@H]1[C@H]1CC[C@@H]3[C@@]4(C)CC(CCC[P+](c5ccccc5)(c5ccccc5)c5ccccc5)[C@@H](OC(C)=O)C(C)(C)[C@@H]4CC[C@@]3(C)[C@]1(C)CC2 (some centres undefined),IC50,Ehrlich,1100 to 4700 nM
same,IC50,P815,1100 to 4700 nM
C=C(/C=N/N=C/c1ccccc1O)[C@@H]1CC[C@]2(C(=O)O)CC[C@]3(C)[C@H](CC[C@@H]4[C@@]5(C)CC[C@H](O)C(C)(C)[C@@H]5CC[C@]43C)[C@@H]12,IC50,CCRF-CEM,3800 to 4800 nM
C=C(C)[C@@H]1CC[C@]2(C(=O)NCCCN3CCN(CCCN)CC3)CC[C@]3(C)[C@H](CC[C@@H]4[C@@]5(C)CC[C@H](OC(C)=O)C(C)(C)[C@@H]5CC[C@]43C)[C@@H]12,IC50,Plasmodium falciparum,220 nM
same,selectivity ratio,[2],23
same,IC50,HEK-293T,4000 nM
C=C(C)[C@@H]1CC[C@]2(C(=O)OCCCCCCCC(=O)N[C@@H](CC(C)C)[C@@H](O)CC(=O)O)CC[C@]3(C)[C@H](CC[C@@H]4[C@@]5(C)CC[C@H](O)C(C)(C)[C@@H]5CC[C@]43C)[C@@H]12,IC50,[3],50 nM
COC(=O)[C@]12CC[C@@H](C(C)C)[C@@H]1[C@H]1CC[C@@H]3[C@@]4(C)CC(CCC[P+](c5ccccc5)(c5ccccc5)c5ccccc5)[C@H](OC(C)=O)C(C)(C)[C@@H]4CC[C@@]3(C)[C@]1(C)CC2 (some centres undefined),IC50,Ehrlich,1100 to 4700 nM
same,IC50,P815,1100 to 4700 nM
C=C(C)[C@@H]1CC[C@]2(C(=O)O)CC[C@]3(C)[C@H](CC[C@@H]4[C@@]5(C)CC/C(=N\Nc6c(Cl)cc(Cl)cc6Cl)C(C)(C)[C@@H]5CC[C@]43C)[C@@H]12,IC50,L132,1000 to 4000 nM
same,IC50,DU-145,1000 to 4000 nM
same,IC50,HT-29,1000 to 4000 nM
same,IC50,PA-1,1000 to 4000 nM
C=C(CO)[C@@H]1CC[C@]2(C(=O)OCCCCCCCCCCC(=O)O)CC[C@]3(C)[C@H](CC[C@@H]4[C@@]5(C)CC[C@H](O)C(C)(C)[C@@H]5CC[C@]43C)[C@@H]12,IC50,[3],50 nM
C=C(C)[C@@H]1CC[C@]2(C(=O)n3ccnc3)CC[C@]3(C)[C@H](CC[C@@H]4[C@@]5(C)C=C(OC(=O)n6ccnc6)C(=O)C(C)(C)[C@@H]5CC[C@]43C)[C@@H]12,IC50,Leishmania infantum,26000 nM
C=C(C)[C@@H]1CC[C@]2(C(=O)O)CC[C@]3(C)[C@H](CC[C@@H]4[C@@]5(C)CC[C@H](O)C(C)(C)[C@@H]5CC[C@]43C)[C@@H]12 [BETULINIC ACID],IC50,A549,330 to 1340 nM
same,IC50,518A2,330 to 1340 nM
same,IC50,Ehrlich,54000 nM
same,IC50,MCF7,330 to 1340 nM
same,IC50,P815,41000 nM
same,IC50,A2780,330 to 1340 nM
same,IC50,8505C,330 to 1340 nM
CCCCCCCCCCCCCCCCOP(=O)([O-])OCC[N+](C)(C)C [MILTEFOSINE],EC50,[4],10 to 330 nM
same,IC50,Leishmania infantum,6000 nM
CC1(C)CC[C@]2(C(=O)O)CC[C@]3(C)C(=CC[C@@H]4[C@@]5(C)CC[C@H](O)C(C)(C)[C@@H]5CC[C@]43C)[C@@H]2C1 [OLEANOLIC_ACID],EC50,[4],10 to 330 nM
C[C@H]1[C@H](C)CC[C@]2(C(=O)O)CC[C@]3(C)C(=CC[C@@H]4[C@@]5(C)CC[C@H](O)C(C)(C)[C@@H]5CC[C@]43C)[C@H]12 [URSOLIC ACID],EC50,[4],10 to 330 nM
Cc1cn([C@H]2C[C@H](N=[N+]=[N-])[C@@H](CO)O2)c(=O)[nH]c1=O [ZIDOVUDINE],EC50,[1],100 nM
